Values joined by “and” are separate entries in the source; they are usually repeats but may differ in a detail not shown here. Equal entries are not always repeated. “Also recorded” adds a separate entry of the source.
Legend:
[1] = tested on: IFN-gamma; experiment: Real-time RT-PCR of cytokine expression: IFN-gamma; assay type: in vivo; conditions: 6 months, versus untreated mice
Experimental: (§1) Real-time RT-PCR assay of growth factors and cytokine expression profiles Total RNAs were extracted from a sample of whole stomach from each animal with Trizol (Invitrogen, Calif.) and five micrograms of total RNA were used for first strand cDNA synthesis using Superscript II cDNA amplification System (Invitrogen, Calif.) following manufacturer's instructions. Real-time PCR was performed as above using RT-PCR primers for each gene as listed below. All primers were designed using Lasergene ver5.0 software (DNASTAR inc., Madison, Wis.). Results were calculated by minus delta delta threshold cycle (-ΔΔCt) method (Livak, K. J. et al., 2001). Briefly, the threshold cycle Ct1 of each sample reaction was deducted from the threshold cycle Ct2 of GAPDH reaction for normalization, and then deducted from the threshold cycle Ct3 of calibration control (45 cycles in this experiment), i.e., the final result was represented by the formula; Ct3-(Ct1-Ct2). […]

[2] = tested on: H. felis-infected INS-GAS mice; experiment: Maximal gastric acid output by pyloric ligation; assay type: in vivo; conditions: 3 months treatment; for Reduction of gastric acid output: acid secretion over 4 hours
Experimental: (§2) Mice in group III were treated orally with the histamine H2 receptor antagonist loxtidine (in drinking water) at a dose of 0.5 g/L, while group IV mice received both drugs. For the 3 months drug study of inhibitory effects on maximal acid secretion, gastric atrophy, hyperplasia and dysplasia, 8 mice were prepared for each group. For the 6 months drug study of inhibitory effects on gastric carcinogenesis, 17 mice were prepared for each group.
The pyloric ligation method was used to measure maximal acid secretion as previously described (Chen, D. et al., 2004). Briefly, mice were fasted overnight and anesthetized by isoflurane inhalation. The abdomen was incised by midline celiotomy, the pylorus ligated firmly, and the abdomen closed with surgical sutures. After 4 hours, the mice were euthanized and gastric juice collected. The acidity of gastric juice was measured with a pH meter (AR 25; Fisher Scientific, Houston, Tex.) by 0.01 N NaOH titration and results expressed as μEq.

[3] = tested on: ECL cell; conditions: cited from earlier work
[4] = tested on: enterochromaffin-like (ECL) cell; experiment: Gastric histology of loxtidine-treated South African rat; assay type: in vivo, Mastomys (African multimammate rat); conditions: treated for 16 weeks
Description: FIG. 2: Characteristics of loxtidine.

[5] = tested on: IL-4; experiment: Real-time RT-PCR of cytokine expression: IL-4; assay type: in vivo; conditions: 6 months; versus untreated mice; listed as loxtidine alone
Experimental: as §1

[6] = tested on: COOH-terminally amidated gastrin; experiment: Gastrin radioimmunoassay (serum amidated gastrin); assay type: in vivo, mice; conditions: 6 months treatment
Experimental: Plasma gastrin levels (COOH-terminally amidated gastrin) were determined by radioimmunoassay using rabbit antiserum L2 that reacts similarly with G17 and […]. Real-time PCR Assay of Helicobacter felis infection in mouse stomachs and RT-PCR assay of growth factors and cytokine expression profiles H.felis DNA present in infected mouse stomachs was quantified using a modification of a previously described realtime PCR assay that accurately quantified H. pylori (Ge, Z. et al., 2001). Two primers (forward: 5′-[…] -3′ (SEQ ID NO:1); reverse: 5′-[…]-3′(SEQ ID NO:2) were designed to hybridize within the conserved region of the single copy H. felis flaB gene locus. No products were amplified from DNA isolated from H. pylori, H. mustelae, or H. bizzozeroni, confirming the specificity of these oligonucleotides for H. felis. DNA from plate-grown H. felis and from mouse gastric corpus was prepared using a high pure PCR kit (Roche Molecular Biochemicals, Indianapolis, IN). Real-time PCR was performed using SmartCycler (Cepheid, Calif.) and Quantitect SYBR Green PCR kit (QIAGEN Inc., Valencia, Calif.) following the manufacturer's instructions. Briefly, the PCR assay was performed under the following conditions: 95° C. for 15 minutes followed by 45 cycles of 95° C. for 15 seconds, 55° C. for 30 seconds and 72° C. for 30 seconds. […]

[7] = tested on: H. felis-infected INS-GAS mice; experiment: Stomach wet-weight and gross stomach size; assay type: in vivo
Description: The control group (A) included INS-GAS mice that were infected with H. felis but untreated, resulting in a total of 4 groups of mice (A-D). The INS-GAS (male) mice entered the study at 6-8 weeks of age, and were housed in 4 cages. There were 21 mice in each group, seven of which were euthanized after 3 months and 14 of which were euthanized after 6-7 months. The doses of medication are shown. Loxtidine was given in the drinking water while YF476 was given by subcutaneous injection once a week.
FIG. 4: Closed stomachs from INS-GAS/H. felis mice. Gross photos of representative stomachs from each of the four groups of 6 month H. felis-infected INS-GAS mice are shown. Mice were euthanized by CO2 inhalation and the stomachs were removed by […] of the esophagus and duodenum.
as §2

[8] = tested on: Reg I; experiment: Real-time RT-PCR of growth factor expression: Reg I; assay type: in vivo; conditions: quantitative real-time PCR; versus non drug treated mice
Experimental: as §1

1-methyl-5-((3-(3-(1-piperidinylmethyl)phenoxy)propyl)amino)-1H-1,2,4-triazole-3-ethanol [Loxtidine]
IFN-gamma expression level ([1]; listed as Loxtidine alone): significantly lower level | IFN-gamma expression level ([1]; listed as loxtidine alone): significantly down-regulated | Maximal gastric acid output (MAO), effect in words [2]: significantly inhibited | Reduction of gastric acid output [2]: 80% | Reduction of gastric acid output ([2]; listed as loxtidine): 83% | Tumor induction in rats ([3]; rat, in vivo): induction of ECLomas | Duration of administration after which ECL cell hyperplasia was seen ([3]; rats, Poynter et al.): 39 days | Gastric histology finding [4]: enterochromaffin-like (ECL) cell neoplasia | IL-4 expression level [5]: large and significant increase; also recorded: significantly higher level | Serum amidated gastrin levels compared with untreated mice [6]: no significant, but in a higher tendency | Serum amidated gastrin levels compared with untreated mice ([6]; listed as loxtidine alone): tendency toward higher gastrins that was not significant | Gross stomach size ([7]; 6 month H. felis-infected mice): significant reduction in apparent size | Stomach weight after treatment ([7]; untreated 1831 / ~1830 mg): ~400 mg and ~800 mg | Reg I expression level [8]: markedly reduced
